Assays:
whole blood [1] = test: ROTEM whole blood coagulation with dialyzed Dade Innovin (recombinant tissue factor) 0.569 μg/mL + Ca 12 mM + CTI 20 μg/mL + PKSI-527 40 μM; format: cell-based; details: Ex28; for CT (clotting time): Innovin 0.569 μg/mL+Ca+CTI+PKSI-527, ARIXTRA 0.5 ug/mL
Experimental: ROTEM was used to analyze blood coagulation.
Blood was collected using a blood collection tube containing 3.2% sodium citrate manufactured by Terumo Corporation.
Blood coagulation was analyzed in the case of having added 4% (final concentration 0.569 μg/mL) of Dade Innovin (recombinant tissue factor: Sysmex Corporation) having being diluted by 50 times after dialysis, calcium chloride (Ca; final concentration 12 mM), heparan sulfate (final concentration 0 or 2 μg/mL), CTI (final concentration 20 μg/mL), PKSI-527 (final concentration 40 μM) without and with a soluble thrombomodulin (rTM: final concentration 30 nM) further having been added, as well as with an APC inhibitory aptamer (HS02-44G; final concentration 1 μM) in addition to 30 nM of soluble thrombomodulin.
Blood coagulation was analyzed in the case of having added 4% (final concentration 0.569 μg/mL) of 50-fold diluted Dade Innovin (recombinant tissue factor: Sysmex Corporation) after dialysis, calcium chloride (Ca; final concentration 12 mM), low molecular weight heparan (trade name FRAGMIN; Pfizer) (final concentration 0 or 0.2 U/mL), CTI (final concentration 20 μg/mL), and PKSI-527 (final concentration 40 μM) with and without a soluble thrombomodulin (rTM; final concentration 30 nM) further having been added, as well as with an APC inhibitory aptamer (HS02-44G; final concentration 1 μM) in addition to 30 nM soluble thrombomodulin.
ROTEM was used to analyze coagulation.
Blood coagulation was analyzed in the case of having added 4% (final concentration 0.569 μg/mL) of 50-fold diluted Dade Innovin (recombinant tissue factor: Sysmex Corporation) after dialysis, calcium chloride (Ca; final concentration 12 mM), ARIXTRA (final concentration 0 or […]), CTI (final concentration 20 μg/mL), and PKSI-527 (final concentration 40 μM), without and with thrombomodulin (rTM; final concentration 30 nM) further having been added, as well as with an APC inhibitory aptamer (HS02-44G; final concentration 1 μM) in addition to soluble thrombomodulin 30 nM.

whole blood [2] = test: ROTEM whole blood coagulation with rabbit brain-derived tissue thromboplastin (TP) + Ca 12 mM (CTI 20 μg/mL, PKSI-527 40 μM where stated); format: cell-based; details: for prolongation of blood coagulation by addition of rTM: Ex5-8, TP 0.9 μg/mL+Startem, FRAGMIN 0.2 U/mL or ARIXTRA 0.5 μg/mL instead of heparan sulfate, rTM 20 or 30 nM
[3] = unfractionated heparin 0.1 U/mL
[4] = Ex20, TP 16.6 μg/mL+Ca+CTI+PKSI-527, ARIXTRA 0.5 μg/mL, no rTM
[5] = Ex20, TP 16.6 μg/mL+Ca+CTI+PKSI-527, ARIXTRA 0.5 μg/mL, rTM 100 nM
[6] = Ex20, TP 16.6 μg/mL+Ca+CTI+PKSI-527, ARIXTRA 2.0 μg/mL, no rTM
[7] = Ex20, TP 16.6 μg/mL+Ca+CTI+PKSI-527, ARIXTRA 2.0 μg/mL, rTM 100 nM
[8] = Ex20, TP 16.6 μg/mL+Ca+CTI+PKSI-527, ARIXTRA 3.0 μg/mL, no rTM
[9] = Ex20, TP 16.6 μg/mL+Ca+CTI+PKSI-527, ARIXTRA 3.0 μg/mL, rTM 100 nM
[10] = Ex20, TP 16.6 μg/mL+Ca+CTI+PKSI-527, ARIXTRA 4.0 μg/mL, no rTM
[11] = Ex20, TP 16.6 μg/mL+Ca+CTI+PKSI-527, ARIXTRA 4.0 μg/mL, rTM 100 nM
[12] = Ex20, TP 16.6 μg/mL+Ca+CTI+PKSI-527, ARIXTRA 5.0 μg/mL, no rTM
[13] = Ex20, TP 16.6 μg/mL+Ca+CTI+PKSI-527, ARIXTRA 5.0 μg/mL, rTM 100 nM
[14] = Ex21, TP 0.64 μg/mL+Ca+CTI+PKSI-527, ARIXTRA 0.5 μg/mL, no rTM
[15] = Ex21, TP 0.64 μg/mL+Ca+CTI+PKSI-527, ARIXTRA 0.5 μg/mL, rTM 30 nM
[16] = Ex22, TP 0.055 μg/mL+Ca+CTI+PKSI-527, ARIXTRA 0.05 μg/mL, no rTM
[17] = Ex22, TP 0.055 μg/mL+Ca+CTI+PKSI-527, ARIXTRA 0.05 μg/mL, rTM 20 nM
[18] = Ex22, TP 0.055 μg/mL+Ca+CTI+PKSI-527, ARIXTRA 0.20 μg/mL, no rTM
[19] = Ex22, TP 0.055 μg/mL+Ca+CTI+PKSI-527, ARIXTRA 0.20 μg/mL, rTM 20 nM
[20] = Ex19, TP 16.6 μg/mL+Ca+CTI+PKSI-527, unfractionated heparin 0.1 U/mL, no rTM
[21] = Ex19, TP 16.6 μg/mL+Ca+CTI+PKSI-527, unfractionated heparin 0.1 U/mL, rTM 100 nM
[22] = Ex19, TP 16.6 μg/mL+Ca+CTI+PKSI-527, unfractionated heparin 0.2 U/mL, no rTM
[23] = Ex19, TP 16.6 μg/mL+Ca+CTI+PKSI-527, unfractionated heparin 0.2 U/mL, rTM 100 nM
[24] = Ex19, TP 16.6 μg/mL+Ca+CTI+PKSI-527, unfractionated heparin 0.3 U/mL, no rTM
[25] = Ex19, TP 16.6 μg/mL+Ca+CTI+PKSI-527, unfractionated heparin 0.3 U/mL, rTM 100 nM

CO[C@H]1O[C@H](COS(=O)(=O)O)[C@@H](O[C@@H]2O[C@@H](C(=O)O)[C@@H](O[C@H]3O[C@H](COS(=O)(=O)O)[C@@H](O[C@@H]4O[C@H](C(=O)O)[C@@H](O[C@H]5O[C@H](COS(=O)(=O)O)[C@@H](O)[C@H](O)[C@H]5NS(=O)(=O)O)[C@H](O)[C@H]4O)[C@H](OS(=O)(=O)O)[C@H]3NS(=O)(=O)O)[C@H](O)[C@H]2OS(=O)(=O)O)[C@H](O)[C@H]1NS(=O)(=O)O [ARIXTRA, fondaparinux sodium]
CT (clotting time) (whole blood [1]; no rTM): 466 s | CT (clotting time) (whole blood [1]; rTM 30 nM): 996 s | CT (clotting time) (whole blood [1]; rTM 30 nM+APC inhibitory aptamer 1 μM): 474 s | anticoagulation ability of the soluble thrombomodulin (whole blood [1]; addition of ARIXTRA 0.5 μg/mL, rTM 30 nM): markedly enhanced | prolongation of blood coagulation by addition of rTM (whole blood [2]; [3]): markedly prolonged | CT values (whole blood [2]; Ex20, TP 16.6 μg/mL+Ca+CTI+PKSI-527, ARIXTRA 0, 0.5 μg/mL, no rTM): < 1 min | CFT (clot formation time) (whole blood [2]; [4]): 86 s | CT (clotting time) (whole blood [2]; [4]): 52 s | CFT (clot formation time) (whole blood [2]; [5]): 69 s | CT (clotting time) (whole blood [2]; [5]): 68 s | CFT (clot formation time) (whole blood [2]; [6]): 64.0 s | CT (clotting time) (whole blood [2]; [6]): 64 s | CFT (clot formation time) (whole blood [2]; [7]): 61 s | CT (clotting time) (whole blood [2]; [7]): 96 s | CFT (clot formation time) (whole blood [2]; [8]): 78.0 s | CT (clotting time) (whole blood [2]; [8]): 72 s | CFT (clot formation time) (whole blood [2]; [9]): 68 s | CT (clotting time) (whole blood [2]; [9]): 112 s | CFT (clot formation time) (whole blood [2]; [10]): 70.0 s | CT (clotting time) (whole blood [2]; [10]): 75 s | CFT (clot formation time) (whole blood [2]; [11]): 77 s | CT (clotting time) (whole blood [2]; [11]): 118 s | CFT (clot formation time) (whole blood [2]; [12]): 77.0 s | CT (clotting time) (whole blood [2]; [12]): 78 s | CFT (clot formation time) (whole blood [2]; [13]): 105 s | CT (clotting time) (whole blood [2]; [13]): 114 s | CFT (clot formation time) (whole blood [2]; [14]): 74 s | CT (clotting time) (whole blood [2]; [14]): 294 s | CFT (clot formation time) (whole blood [2]; [15]): 794 s | CT (clotting time) (whole blood [2]; [15]): 581 s | CFT (clot formation time) (whole blood [2]; [16]): 145 s | CT (clotting time) (whole blood [2]; [16]): 619 s | CFT (clot formation time) (whole blood [2]; [17]): 403 s | CT (clotting time) (whole blood [2]; [17]): 1074 s | CFT (clot formation time) (whole blood [2]; [18]): 232 s | CT (clotting time) (whole blood [2]; [18]): 799 s | blood clotting time (whole blood [2]; Ex22, TP 0.055 μg/mL+Ca+CTI+PKSI-527, ARIXTRA 0.2 μg/mL, rTM 20 nM): ≥ 1 h | CFT (clot formation time) (whole blood [2]; [19]): No CFT | CT (clotting time) (whole blood [2]; [19]): No CT

Unfractionated heparin
prolongation of blood coagulation by addition of rTM (whole blood [2]; [3]): markedly prolonged | CFT (clot formation time) (whole blood [2]; [20]): 98 s | CT (clotting time) (whole blood [2]; [20]): 53 s | CFT (clot formation time) (whole blood [2]; [21]): 93 s | CT (clotting time) (whole blood [2]; [21]): 66 s | CFT (clot formation time) (whole blood [2]; [22]): 82.0 s | CT (clotting time) (whole blood [2]; [22]): 73 s | CFT (clot formation time) (whole blood [2]; [23]): 102 s | CT (clotting time) (whole blood [2]; [23]): 89 s | CFT (clot formation time) (whole blood [2]; [24]): 86.0 s | CT (clotting time) (whole blood [2]; [24]): 69 s | CFT (clot formation time) (whole blood [2]; [25]): 161 s | CT (clotting time) (whole blood [2]; [25]): 182 s
